Holding throughout (type): in vivo
For data set [1], the system named is western flower thrips (Frankliniella occidentalis). Put plainly: Test E: control of western flower thrips on Soleil bean plant, contact and/or systemic. The following applies: adult thrips, assessed after 6 days, replicated three times. Summed up:
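A 5-7 day old Soleil bean plant was sprayed with compound at 250 or 50 ppm in 10% acetone/water with 300 ppm X-77 surfactant, dried 1 hour, then infested with 22-27 adult thrips. After 6 days at 25° C., 45-55% relative humidity, mortality and plant damage were rated; three replicates.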

Data set [2] relates to fall armyworm (Spodoptera frugiperda). Nature of the data set: Test B: control of fall armyworm on corn (maize) plant, foliar spray. The following applies: sprayed at 50 ppm; 1-day-old larvae on corn; replicated three times. How it is done:
Test compounds were formulated using a solution containing 10% acetone, 90% water and 300 ppm X-77™ Spreader Lo-Foam Formula non-ionic surfactant containing alkylarylpolyoxyethylene, free fatty acids, glycols and isopropanol (Loveland Industries, Inc. Greeley, Colo., USA). The formulated compounds were applied in 1 mL of liquid through a SUJ2 atomizer nozzle with ⅛ JJ custom body (Spraying Systems Co. Wheaton, Ill., USA) positioned 1.27 cm (0.5 inches) above the top of each test unit. All experimental compounds in these tests were sprayed at 50 ppm, and the test was replicated three times. After spraying of the formulated test compound, each test unit was allowed to dry for 1 h and then a black, screened cap was placed on top. The test units were held for 6 days in a growth chamber at 25° C. and 70% relative humidity. Plant feeding damage was then visually assessed based on foliage consumed and a pest mortality rating was also counted and calculated for each test unit.
For evaluating control of fall armyworm (Spodoptera frugiperda) the test unit consisted of a small open container with a 4-5-day-old corn (maize) plant inside. This was pre-infested (using a core sampler) with 10-15 1-day-old larvae on a piece of insect diet. Test compounds were formulated and sprayed at 50 ppm as described for Test A and replicated three times. After spraying, the test units were maintained in a growth chamber and then the control efficacy was rated for each test unit as described for Test A.

The test system of data set [3] is diamondback moth (Plutella xylostella). Nature of the data set: Test A: control of diamondback moth on radish plant, foliar spray. The following applies: sprayed at 50 ppm; neonate larvae on radish; assessed after 6 days; replicated three times. Summed up:
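Radish plants 12–14 days old, pre-infested with about 50 neonate larvae, were sprayed with compound at 50 ppm in 10% acetone/water with 300 ppm X-77 surfactant, in three replicates. Units were held 6 days at 25 °C and 70% RH. Feeding damage was assessed visually and mortality was counted.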

As for `C[C@@H](NC(=O)c1ccc(C2=NOC(c3cc(C(F)(F)F)cc(C(F)(F)F)c3)(C(F)(F)F)C2)c2ccccc12)C(=O)NC1CC1` (stereo partly shown) [Compound 64], the “control efficacy (feeding damage or mortality): very good to excellent levels” value (from here on “control efficacy”) in data set [1] (sprayed at 50 ppm), in data set [1] (sprayed at 250 ppm), in data set [2] and in data set [3] was 20% or less feeding damage or 80% or more mortality each time.
On to `C[C@@H](NC(=O)c1ccc(C2=NOC(c3cc(C(F)(F)F)cc(C(F)(F)F)c3)(C(F)(F)F)C2)c2ccccc12)C(N)=O` (stereo partly shown) [Compound 65], for which the “control efficacy” value in data set [1] (sprayed at 50 ppm), in data set [2] and in data set [3] was 20% or less feeding damage or 80% or more mortality each time.
For `C[C@@H](NC(=O)c1ccc(C2=NOC(c3cc(C(F)(F)F)cc(C(F)(F)F)c3)(C(F)(F)F)C2)c2ccccc12)C(=O)NCC1CC1` (stereo partly shown) [Compound 66], the “control efficacy” value in data set [1] (sprayed at 50 ppm), in data set [1] (sprayed at 250 ppm), in data set [2] and in data set [3] was 20% or less feeding damage or 80% or more mortality each time.
In the case of `CC(NC(=O)c1ccc(C2=NOC(c3cc(C(F)(F)F)cc(C(F)(F)F)c3)(C(F)(F)F)C2)c2ccccc12)C(=O)NC1CC1` (stereo not shown) [Compound 67], the “control efficacy” value in data set [1] (sprayed at 50 ppm), in data set [1] (sprayed at 250 ppm), in data set [2] and in data set [3] was 20% or less feeding damage or 80% or more mortality throughout.
On to `CC(NC(=O)c1ccc(C2=NOC(c3cc(C(F)(F)F)cc(C(F)(F)F)c3)(C(F)(F)F)C2)c2ccccc12)C(=O)NCC1CC1` (stereo not shown) [Compound 68], for which the “control efficacy” value in data set [1] (sprayed at 50 ppm), in data set [1] (sprayed at 250 ppm), in data set [2] and in data set [3] was 20% or less feeding damage or 80% or more mortality each time.
Consider `CC(NC(=O)c1ccc(C2=NOC(c3cc(C(F)(F)F)cc(C(F)(F)F)c3)(C(F)(F)F)C2)c2ccccc12)C(N)=O` (stereo not shown) [Compound 69], for which the “control efficacy” value in data set [1] (sprayed at 50 ppm), in data set [2] and in data set [3] was 20% or less feeding damage or 80% or more mortality in each case.
For the molecule `NC(=O)CNC(=O)c1ccc(C2=NOC(c3cc(C(F)(F)F)cc(C(F)(F)F)c3)(C(F)(F)F)C2)c2ccccc12` (stereo not shown) [Compound 70], the “control efficacy” value in data set [1] (sprayed at 50 ppm), in data set [2] and in data set [3] was 20% or less feeding damage or 80% or more mortality each time.

The values above are taken from patent publication US9095138B2, “Isoxazoline insecticides” (E.I. du Pont de Nemours and Company, priority 2007, dated 2015).
